Data reported in patent publication US20220370502A1, “Active Ingredient of an Erythrocytes-containing Composition” (priority 2020, published 2022).

How the values were obtained:
Assay type in all cases: cell-based
human erythrocytes [1] = assay: Annexin-V-FLUOS binding (eryptosis) by flow cytometry
Procedure: (§1) Single treatment: Erythrocytes were treated with costunolide or chelerythrine for 24 hours (see FIGS. 2, 4, 5 and 6). Double treatments: Erythrocytes were first pre-treated with chelerythrine for two hours, followed by treatment with costunolide for further 24 hours (see FIGS. 3 and 7). Thus, the incubation time for chelerythrine-treated erythrocytes lasted 26 h and 24 h for costunolide-treated erythrocytes. In single (0.2% v/v DMSO) and double treatments (0.4% v/v DMSO), DMSO-treated cells served as negative controls. […]
(§2) At the end of the incubation period, 0.1 ml erythrocytes (3×10^6) were added in 500 μl annexin wash buffer, mixed thoroughly and pelleted by centrifuging. […] After an incubation period of 20 minutes in the dark at room temperature, 200 μl annexin binding buffer was added to each sample, thoroughly vortexed to obtain single cell suspensions, and analyzed by flow cytometry on a FACS Calibur (Becton Dickinson, Heidelberg, Germany). In the FL1-channel, binding of annexin-V-FLUOS (eryptosis) was measured. Erythrocyte volume was determined by forward scatter (FSC). To this end, corresponding erythrocytes suspensions were immediately analysed by flow cytometry.

human erythrocytes [2] = assay: Intracellular GSH and GSSG analysis; conditions: costunolide 1-80 μM, 24 h, FIG. 5
Procedure: For single (FIG. 5) or double treatments (FIG. 7), pure RBCs (0.6% Hct) were suspended in 30 ml Ringer solution and treated with varying concentrations of costunolide (1-80 μM) or different concentrations of chelerythrine (1-10 μM) and a fixed costunolide concentration (80 μM). DMSO-treated RBCs served as negative control. After incubation, 58 μl from a 310 mM NEM stock was given to each condition, gently mixed for 1 min and then centrifuged 10 min long at 10 C and 228×g. Supernatants were removed and the cell pellets were stored at −20° C. until analyses. GSH and GSSG were measured on the clear supernatant obtained by treatment of 0.1 ml RBCs with 0.12 ml 15% (w/v) trichloroacetic acid. […] GSSG was measured at the spectrophotometer by the GSH recycling method with slight modifications (Giustarini D. et al. 2013; Nat. Protoc. 8: 1660-1669, “Analysis of GSH and GSSG after derivatization with N-ethylmaleimide”). One aliquot of RBCs ([…]) was hemolyzed by a 1:200 dilution with H2O for haemoglobin determination (Di lorio E.E. 1981; Methods Enzymol. 76: 57-72 “Preparation of derivatives of ferrous and ferric hemoglobin”). The HPLC analyses were carried out by an Agilent series 1100 instrument. The spectrophotometric analyses were performed by a Jasco V-530 instrument.

human erythrocytes [3] = assay: Erythrocyte volume by forward scatter (cell shrinkage); conditions: single treatment with increasing concentrations of costunolide, 24 h, FIG. 2
Procedure: as §1, §2

human erythrocytes [4] = assay: Hemolysis measurement (hemoglobin in supernatant, 405 nm); conditions: costunolide treatment, 24 h, FIG. 2C
Procedure: After 24 hours treatment of erythrocytes (0.6% Hct) with costunolide and/or chelerythrine, hemolysis was determined. 600 μl cell suspension form each condition containing 3.6×10^6 erythrocytes centrifuged for 8 min at 420×g, 4° C., and the supernatants were harvested. As a measure of hemolysis, the hemoglobin (Hb) concentration of the supernatants was determined photometrically at 405 nm. The absorption of the supernatant of DMSO-treated erythrocytes lysed in 600 μl distilled water was defined as 100%. From this the standard curve was made by serial dilution.

[5] = molecular target: T1, glucose-6-phosphate dehydrogenase (G6PDH) (Homo sapiens, UniProt P11413); assay: Determination of G6PDH activity in erythrocyte lysates; conditions: costunolide treatment of erythrocytes, 24 h, FIG. 6
T1 construct: endogenous in cells; host or cells: human erythrocytes (RBCs), hemolysate
T1 sequence (P11413 whole entry): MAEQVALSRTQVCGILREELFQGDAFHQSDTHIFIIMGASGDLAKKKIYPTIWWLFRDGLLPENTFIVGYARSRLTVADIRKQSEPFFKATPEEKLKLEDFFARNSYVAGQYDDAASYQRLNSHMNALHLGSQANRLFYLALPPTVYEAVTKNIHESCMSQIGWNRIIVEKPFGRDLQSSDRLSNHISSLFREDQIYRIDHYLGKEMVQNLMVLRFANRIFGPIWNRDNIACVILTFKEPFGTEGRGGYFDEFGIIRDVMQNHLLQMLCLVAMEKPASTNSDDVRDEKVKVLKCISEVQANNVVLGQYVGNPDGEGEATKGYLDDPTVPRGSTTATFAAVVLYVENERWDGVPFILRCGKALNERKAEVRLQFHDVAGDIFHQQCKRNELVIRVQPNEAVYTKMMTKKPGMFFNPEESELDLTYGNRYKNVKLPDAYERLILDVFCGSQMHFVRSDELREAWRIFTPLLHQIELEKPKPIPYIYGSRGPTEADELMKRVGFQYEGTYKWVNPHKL
Procedure: Pure RBCs (0.6% Hct) were incubated in 20 ml Ringer solution and treated with DMSO or different concentrations of costunolide. 24 hrs later, cell suspensions were centrifuged at 10° C., 228×g. Supernatants were removed and the cell pellets were stored at −80° C. until analyses. G6PDH activity was measured in lysates according to methods recommended by the International Committee for Standardization in Hematology (Di lorio E.E. 1981; l.c.). The activity was expressed in units per grams of hemoglobin (U/g Hb) (Ghashghaeinia M. et al. 2012; l.c.). RBC pellet was diluted 1:20 with distilled water. After 10 min (for GR 20 min) incubation at 37° C., the reactions were started by adding substrate or hemolysate and mixed properly. Then, 200 μL of each reaction mixture was transferred into a 96-well plate and changes in absorbance were recorded at 340 nm at 1 min intervals for 20 min at 37° C. (Infinite 200 Nanoquant, Tecan). All assays were run in triplicates and specific enzyme activity was calculated using the Lambert-Beer law. Activity =(ΔA×V/(ϵ×l×t))×f.
0.1 M Tris-HCl/0.5 mM EDTA, pH=8.0; 0.01 M MgCl2; 0.2 mM NADP^+; 20 μL of 1:20 hemolysate; 10 min incubation at 37° C.; start by addition of 0.6 mM 6PGA+0.6 mM G6P

SMILES | basal eryptosis rate (human erythrocytes [1]; without costunolide, DMSO control 1.69%, FIG. 3A) | GSH (reduced glutathione) level (human erythrocytes [2]) | GSSG (oxidized glutathione) level (human erythrocytes [2]) | eryptosis rate (human erythrocytes [1]; single treatment with increasing concentrations of costunolide, 24 h, FIG. 2) | cell shrinkage (human erythrocytes [3]) | hemolysis (human erythrocytes [4]) | G6PDH activity [5]
COc1ccc2c(c[n+](C)c3c4cc5c(cc4ccc23)OCO5)c1OC [chelerythrine, 1,2-Dimethoxy-12-methyl[1,3]benzodioxolo[5,6-c]phenanthridinium] | 1.1% |  |  |  |  |  | 
C=C1C(=O)O[C@@H]2/C=C(\C)CC/C=C(\C)CC[C@@H]12 [costunolide] |  | deplete both the reduced (GSH) and the oxidized (GSSG) form of glutathione in a concentration-dependent manner | deplete both the reduced (GSH) and the oxidized (GSSG) form of glutathione in a concentration-dependent manner | increased rates of eryptosis | increased rates of eryptosis and cell shrinkage | not associated with hemolysis | inhibit G6PDH activity completely
